{
  "source": "paper PMC12713470",
  "about": "“Design and Synthesis of Novel Chalcone Derivatives Targeting Bladder and Liver Cancer: Cytotoxicity Evaluation and Preliminary Mechanistic Studies” (ACS Omega, 2025)",
  "key": {"[1]": {"tested_on": "TOV-21G: human ovarian adenocarcinoma cells", "experiment": "MTT cytotoxicity assay on TOV-21G cells", "type": "cell-based", "protocol": "Cytotoxicity was determined using the MTT colorimetric assay, and half-maximal inhibitory concentrations (IC50, μM) were obtained for all cell lines (Table ). The selectivity index (SI) was calculated as the ratio of IC50 MRC-5/IC50 cancer cell line. Doxorubicin was employed as a positive control due to its broad-spectrum clinical use, either alone or in combination, against hepatocellular, ovarian, cervical, and bladder cancers. −\nIn vitro biological assays were performed by using five human cell lines for cytotoxicity evaluation. HepG2 cells (ATCC HB-8065), derived from a human hepatocellular carcinoma of the liver (person), were cultured in Dulbecco’s modified Eagle medium (DMEM) supplemented with 5% fetal bovine serum (FBS), penicillin/streptomycin (100 IU/mL), and amphotericin B (5 μg/mL), in a humidified incubator with 5% CO2 at 37 °C. These cells were plated at a concentration of 2.0 × 10^4 cells/well in 96-well microplates. MRC-5 cells (ATCC CCL-171), derived from human lung fibroblasts of a […] fetus, were cultured under the same conditions and plated at 1.0 × 10^4 cells/well. T24 cells (ATCC HTB-4), established from a transitional cell carcinoma of the bladder (person), were also cultured under identical conditions and plated at a density of 1.0 × 10^4 cells/well. TOV-21G cells (ATCC CRL-11730), derived from a primary malignant ovarian adenocarcinoma (person), were maintained in DMEM with the same supplementation and environmental conditions and plated at 5.0 × 10^4 cells/well. […]\nHeLa, HepG2, MRC-5, T24, and TOV-21G cells were suspended in a culture medium supplemented with 5% fetal bovine serum (FBS) and seeded into 96-well microplates. The plates were incubated under a humidified atmosphere containing 5% CO2 at 37 °C for 24 h, allowing for adherence and monolayer formation. , Eight serial dilutions of the test samples, previously solubilized in dimethyl sulfoxide (DMSO), were prepared in DMEM supplemented with 1% FBS, covering a concentration range from […], and the results were converted to […]. The volume of DMSO in each well was limited to a final concentration not exceeding 2%. Following monolayer formation, the culture medium was aspirated and replaced with 100 μL of the diluted test samples and 100 μL of DMEM containing 1% FBS. The plates were then incubated under the same atmospheric and temperature conditions.\nTwo hours prior to end point reading, 20 μL of MTT [3-(4,5-dimethylthiazol-2-yl)-2,5-diphenyltetrazolium bromide] solution (1.0 mg/mL in sterile phosphate-buffered saline, Sigma-Aldrich) was added to each well. The incubation period following sample addition varied according to the cell line: 24 h for MRC-5, 48 h for T24, and 72 h for HeLa, HepG2, and TOV-21G. After the appropriate incubation, absorbance was measured by using a VICTOR X3 microplate reader (PerkinElmer), and data were processed with WorkOut 2.5 software at a wavelength of 490 nm. Formazan formation, resulting from the MTT reduction by metabolically active cells, was used as an indirect measure of cell viability. The percentage of cytotoxicity was calculated using the equation % cytotoxicity = [(A – B)/A] × 100, where A is the optical density (OD4 9 0) of untreated control cells and B is the OD4 9 0 of treated cells.\nCytotoxicity was expressed as the 50% cytotoxic concentration (CC5 0), representing the concentration of sample required to reduce cell viability by 50% relative to that of the untreated control."}, "T24 cells [2]": {"tested_on": "T24 cells", "experiment": "Clonogenic survival, T24", "type": "cell-based, human", "conditions": "18.50 μM (maximum concentration tested), 48 h treatment, 10 days colony formation", "protocol": "(§1) The cells were cultured in DMEM (Sigma-Aldrich, St. Louis, USA) and supplemented with 10% fetal bovine serum (Cultilab Ltda., Campinas, Brazil) and antibiotics (amphotericin). They were incubated at 37 °C in a humidified atmosphere with 5% CO2. Control cell groups, which were not exposed to the compound, were included in the experiments and were conducted in triplicate. The chalcone was dissolved in dimethyl sulfoxide (DMSO) for the assays.\nThe cells were trypsinized and plated into 24-well plates at a density of 1.0 × 10^5 cells/mL. Afterward, they were treated with the chalcone at concentrations of 2.15, 4.62, 9.25, and 18.50 μM for 48 h. Following treatment, the cells were washed with Hanks’ solution and trypsinized again, and approximately 1000 cells were reseeded into 12-well plates. These cells were incubated for 10 days in a CO2 incubator to allow colony formation. After the incubation period, the culture medium was removed, and the cells were washed with Hanks’ solution. Fixation was performed using 4% formaldehyde for 20 min, followed by […] in 100% methanol for 20 min. The cells were then stained with a 0.5% crystal violet solution prepared in 25% methanol. […] Absorbance was measured at 570 nm using a spectrophotometer, and the results were expressed as the percentage of colonies formed relative to the untreated control group."}, "T24 cells [3]": {"tested_on": "T24 cells", "experiment": "Cell migration (wound), T24", "type": "cell-based, human", "conditions": "highest concentration tested, 48 h", "protocol": "as §1\nCells were seeded in 24-well plates at a density of 1.0 × 10^5 cells per well and incubated for 24 h to allow attachment. After this incubation, a sterile 200 μL pipet tip was used to scrape the cell monolayer, creating a wound. The initial wound area was photographed using an inverted microscope equipped with a camera. Following this, the cells were washed with Hanks’ solution and treated with the glycosylated chalcone at concentrations of 2.15, 4.62, 9.25, and 18.50 μM for 48 h. At the end of the treatment period, the cells were photographed again, and migration into the wound area was assessed. The percentage of cell migration was quantified using ImageJ and GraphPad Prism software."}, "T24 cells [4]": {"tested_on": "T24 cells", "experiment": "Morphology assay, T24", "type": "cell-based, human", "conditions": "2.15-18.50 μM, 48 h", "protocol": "For the morphology assay, 2.0 × 10^5 cells were cultured in 12-well plates for 24 h to allow adherence. After this period, the cells were treated with the chalcone at concentrations of 2.15, 4.62, 9.25, and 18.50 μM for 48 h. After treatment, the cells were examined and photographed under an inverted microscope at 200× magnification."}, "T24 cells [5]": {"tested_on": "T24 cells", "experiment": "Cell cycle progression (propidium iodide flow cytometry), T24", "type": "cell-based, human", "conditions": "after treatment, 48 h", "protocol": "Cells were seeded in 12-well plates at a density of 1.0 × 10^5 cells per well and incubated for 24 h to allow adhesion. Following this initial incubation, the cells were treated with the chalcone at concentrations of 0.92, 2.15, 4.62, and 9.25 μM for an additional 48 h. After the treatment, the cells were washed, trypsinized, and collected along with the culture supernatant into Falcon tubes. The samples were then centrifuged at 1000 rpm for 10 min. After centrifugation, the supernatant was discarded, and the cell pellets were resuspended in 200 μL of propidium iodide staining solution before being transferred to cytometry tubes. These tubes were incubated on ice, in the dark, for 30 min. Flow cytometric analysis was performed on 20,000 events using a BD FACScalibur flow cytometer (BD Biosciences, Franklin Lakes, NJ, USA), and the data were analyzed using FlowJo software."}},
  "data": [
    {"compound": "CCCc1cc(/C=C/C(=O)c2ccc(C)cc2)c(OC)c(OC)c1", "note": "[compound 3, (E)-3-(2,3-Dimethoxy-5-propylphenyl)-1-(p-tolyl)-prop-2-en-1-one]", "values": [
      {"measurement": "IC50", "setting": "[1]; Homo sapiens, TOV21G, MTT, 72 h incubation, n = 3, NA: noncytotoxic at the concentrations tested", "result": "3 ± 2.6", "unit": "µM"},
      {"measurement": "SI (TOV-21G)", "setting": "[1]; IC50 MRC-5/IC50 TOV-21G", "result": 18.2},
      {"measurement": "colony formation, T24", "setting": "T24 cells [2]", "result": "significant effect was observed"},
      {"measurement": "cell migration, T24", "setting": "T24 cells [3]", "result": "significant decrease was observed"},
      {"measurement": "morphology, T24", "setting": "T24 cells [4]", "result": "reduction in cell density was observed"},
      {"measurement": "cell cycle distribution, T24", "setting": "T24 cells [5]", "result": "no difference was observed after treatment"}
    ]}
  ]
}
